Results reported in US12539292B2, “BRM targeting compounds and associated methods of use” (Arvinas Operations, Inc., priority 2018, dated 2026).
Where two headings read alike, the source gives them in different places.

Biological target: T1, BRM (Homo sapiens, UniProt P51531)
T1 construct: In-Cell Western Screen of BRM Degradation in SW1573 Cells; endogenous in cells; host or cells: SW1573
Assay: In-cell Western screen of BRM degradation in SW1573 cells (Dmax and DC50)
Type: cell-based
In short: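 Overnight compound treatment (18-20 h, final DMSO 0.1%) of SW1573 cells in DMEM with 10% FBS precedes fixation and in-cell Western staining with 800/680 nm dye-labelled secondaries. Plate images give DC50 and maximal degradation.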

[1] = BRM degradation, SW1573 cells, read-out: DC50
[2] = BRM degradation, SW1573 cells, tested at the top concentration of between 0.3 and 10 μM, read-out: Dmax (%) (% degraded)
[3] = BRM degradation, SW1573 cells, Table 2D, read-out: *DC50
[4] = SW1573, % degraded, when tested at the top concentration of between 0.3 and 10 μM, read-out: BRM Dmax (%)
[5] = BRM degradation, SW1573 cells, Table 2D, read-out: **Dmax (%) (% degraded)

T1 sequence (P51531 whole entry): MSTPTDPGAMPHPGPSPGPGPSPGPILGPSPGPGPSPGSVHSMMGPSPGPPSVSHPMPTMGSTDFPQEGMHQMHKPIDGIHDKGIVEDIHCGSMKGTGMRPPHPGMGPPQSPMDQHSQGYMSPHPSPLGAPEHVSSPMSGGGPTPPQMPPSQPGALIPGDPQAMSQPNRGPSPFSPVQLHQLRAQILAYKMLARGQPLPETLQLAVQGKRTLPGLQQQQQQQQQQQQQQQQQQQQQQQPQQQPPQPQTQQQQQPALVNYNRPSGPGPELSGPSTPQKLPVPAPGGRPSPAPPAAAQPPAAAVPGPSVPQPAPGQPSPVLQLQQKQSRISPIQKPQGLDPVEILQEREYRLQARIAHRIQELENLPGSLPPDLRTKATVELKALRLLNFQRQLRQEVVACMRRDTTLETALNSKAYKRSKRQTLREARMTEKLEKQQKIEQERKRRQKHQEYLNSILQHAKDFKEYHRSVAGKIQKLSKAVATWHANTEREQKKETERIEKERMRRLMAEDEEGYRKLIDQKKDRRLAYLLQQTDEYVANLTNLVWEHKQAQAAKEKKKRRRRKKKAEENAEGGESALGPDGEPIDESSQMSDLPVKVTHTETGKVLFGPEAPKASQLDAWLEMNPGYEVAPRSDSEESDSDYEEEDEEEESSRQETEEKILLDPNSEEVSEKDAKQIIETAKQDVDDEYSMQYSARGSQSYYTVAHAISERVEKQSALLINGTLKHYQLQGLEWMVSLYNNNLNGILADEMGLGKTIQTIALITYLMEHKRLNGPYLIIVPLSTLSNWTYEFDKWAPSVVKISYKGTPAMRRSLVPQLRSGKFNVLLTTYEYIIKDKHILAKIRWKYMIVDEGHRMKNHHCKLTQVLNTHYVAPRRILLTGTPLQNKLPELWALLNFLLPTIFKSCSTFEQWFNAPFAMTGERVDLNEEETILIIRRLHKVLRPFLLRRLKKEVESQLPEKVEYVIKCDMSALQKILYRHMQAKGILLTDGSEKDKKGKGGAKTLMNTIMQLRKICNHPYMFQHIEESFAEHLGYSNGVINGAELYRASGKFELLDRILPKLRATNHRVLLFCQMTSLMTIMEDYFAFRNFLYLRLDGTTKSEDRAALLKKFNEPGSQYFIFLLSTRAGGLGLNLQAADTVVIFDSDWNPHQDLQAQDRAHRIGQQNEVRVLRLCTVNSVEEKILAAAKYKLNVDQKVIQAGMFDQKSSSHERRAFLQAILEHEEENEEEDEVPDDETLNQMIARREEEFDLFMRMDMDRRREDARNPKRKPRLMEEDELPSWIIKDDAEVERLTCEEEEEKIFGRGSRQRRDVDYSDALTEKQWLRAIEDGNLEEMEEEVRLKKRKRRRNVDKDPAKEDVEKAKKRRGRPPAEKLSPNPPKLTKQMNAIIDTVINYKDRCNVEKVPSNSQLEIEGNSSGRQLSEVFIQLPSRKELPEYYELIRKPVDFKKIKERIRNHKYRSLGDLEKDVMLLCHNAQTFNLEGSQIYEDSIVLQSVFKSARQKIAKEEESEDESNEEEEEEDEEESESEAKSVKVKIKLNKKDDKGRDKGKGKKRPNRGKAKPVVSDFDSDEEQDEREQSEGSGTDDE

Compound | DC50 [1] [nM] | Dmax [2] [%] | other results
Cc1nccn1-c1ccc([C@H](C)NC(=O)[C@@H]2C[C@@H](O)CN2C(=O)[C@@H](c2cc(OCCN3CCC(O[C@H]4C[C@H](Oc5cc(N6C7CCC6CN(c6cc(-c8ccccc8O)nnc6N)C7)ccn5)C4)CC3)no2)C(C)C)cc1 [compound 178, (2S,4R)-1-((2R)-2-(3-(2-(4-((1r,3R)-3-((4-(3-(3-amino-6-(2-hydroxyphenyl)pyridazin-4-yl)-3,8-diazabicyclo[3.2.1]octan-8-yl)pyridin-2-yl)oxy)cyclobutoxy)piperidin-1-yl)ethoxy)isoxazol-5-yl)-3-methylbutanoyl)-4-hydroxy-N-((S)-1-(4-(2-methyl-1H-imidazol-1-yl)phenyl)ethyl)pyrrolidine-2-carboxamide] | < 2.5 | > 75 | –
Cc1ncsc1-c1ccc([C@H](CCCC(N)=O)NC(=O)[C@@H]2C[C@@H](O)CN2C(=O)[C@H](c2cc(OCCN3CCC(O[C@H]4C[C@H](Oc5cc(N6C7CCC6CN(c6cc(-c8ccccc8O)nnc6N)C7)ccn5)C4)CC3)no2)C(C)C)cc1 [compound 555, (2S,4R)-N-((S)-5-amino-1-(4-(4-methylthiazol-5-yl)phenyl)-5-oxopentyl)-1-((2S)-2-(3-(2-(4-((1r,3S)-3-((4-(3-(3-amino-6-(2-hydroxyphenyl)pyridazin-4-yl)-3,8-diazabicyclo[3.2.1]octan-8-yl)pyridin-2-yl)oxy)cyclobutoxy)piperidin-1-yl)ethoxy)isoxazol-5-yl)-3-methylbutanoyl)-4-hydroxypyrrolidine-2-carboxamide] | – | – | DC50 [3]: > 30 nM
Cc1ncsc1-c1ccc([C@H](C)NC(=O)[C@@H]2C[C@@H](OP(=O)(O)O)CN2C(=O)[C@@H](c2cc(OCCN3CCC(O[C@H]4C[C@H](Oc5cc(N6C7CCC6CN(c6cc(-c8ccccc8OP(=O)(O)O)nnc6N)C7)ccn5)C4)CC3)no2)C(C)C)cc1 [compound 517, (3R,5S)-1-((2R)-2-(3-(2-(4-((1r,3R)-3-((4-(3-(3-amino-6-(2-(phosphonooxy)phenyl)pyridazin-4-yl)-3,8-diazabicyclo[3.2.1]octan-8-yl)pyridin-2-yl)oxy)cyclobutoxy)piperidin-1-yl)ethoxy)isoxazol-5-yl)-3-methylbutanoyl)-5-(((S)-1-(4-(4-methylthiazol-5-yl)phenyl)ethyl)carbamoyl)pyrrolidin-3-yl dihydrogen phosphate] | – | – | DC50 (BRM degradation, read-out: BRM DC50): < 2.5 nM; Dmax [4]: > 75%
Cc1ncsc1-c1ccc([C@H](C)NC(=O)[C@@H]2C[C@@H](O)CN2C(=O)[C@@H](c2cc(OCCN3CCC(O[C@H]4C[C@H](Oc5cc(/C=C/c6cc(-c7ccccc7O)nnc6N)ccn5)C4)CC3)no2)C(C)C)cc1 [compound 428, (2S,4R)-1-((R)-2-(3-(2-(4-((1r,3R)-3-((4-((E)-2-(3-amino-6-(2-hydroxyphenyl)pyridazin-4-yl)vinyl)pyridin-2-yl)oxy)cyclobutoxy)piperidin-1-yl)ethoxy)isoxazol-5-yl)-3-methylbutanoyl)-4-hydroxy-N-((S)-1-(4-(4-methylthiazol-5-yl)phenyl)ethyl)pyrrolidine-2-carboxamide] | – | – | Dmax [4]: > 75%; DC50 (degradation of BRM, read-out: BRM DC50): < 2.5 nM
Cc1ncsc1-c1cc(F)c([C@H](C)NC(=O)[C@@H]2C[C@@H](O)CN2C(=O)[C@@H](c2cc(OCCN3CCC(O[C@H]4C[C@H](Oc5cc(N6C7CCC6CN(c6cc(-c8ccccc8O)nnc6N)C7)ccn5)C4)CC3)no2)C(C)C)cn1 [compound 539, (2S,4R)-1-((2R)-2-(3-(2-(4-((1r,3R)-3-((4-(3-(3-amino-6-(2-hydroxyphenyl)pyridazin-4-yl)-3,8-diazabicyclo[3.2.1]octan-8-yl)pyridin-2-yl)oxy)cyclobutoxy)piperidin-1-yl)ethoxy)isoxazol-5-yl)-3-methylbutanoyl)-N-((S)-1-(4-fluoro-6-(4-methylthiazol-5-yl)pyridin-3-yl)ethyl)-4-hydroxypyrrolidine-2-carboxamide] | – | – | Dmax [5]: > 75%; DC50 [3]: < 2.5 nM
Cc1ncsc1-c1ccc([C@H](C)NC(=O)[C@@H]2C[C@@H](O)CN2C(=O)[C@H](c2cc(OCCCC#Cc3ccc(O[C@H]4C[C@H](Oc5cc(N6C7CCC6CN(c6cc(-c8ccccc8O)nnc6N)C7)ccn5)C4)cn3)no2)C(C)C)cc1 [compound 249, (2S,4R)-1-((2S)-2-(3-((5-(5-((1r,3r)-3-((4-(3-(3-amino-6-(2-hydroxyphenyl)pyridazin-4-yl)-3,8-diazabicyclo[3.2.1]octan-8-yl)pyridin-2-yl)oxy)cyclobutoxy)pyridin-2-yl)pent-4-yn-1-yl)oxy)isoxazol-5-yl)-3-methylbutanoyl)-4-hydroxy-N-((S)-1-(4-(4-methylthiazol-5-yl)phenyl)ethyl)pyrrolidine-2-carboxamide] | > 30 | > 75 | –
Cc1ncsc1-c1ccc([C@H](CN(C)C)NC(=O)[C@@H]2C[C@@H](O)CN2C(=O)[C@@H](c2cc(OCCN3CCN(CCOc4cc(N5C6CCC5CN(c5cc(-c7ccccc7O)nnc5N)C6)ccn4)CC3)no2)C(C)C)cc1 [compound 281, (2S,4R)-1-((2R)-2-(3-(2-(4-(2-((4-(3-(3-amino-6-(2-hydroxyphenyl)pyridazin-4-yl)-3,8-diazabicyclo[3.2.1]octan-8-yl)pyridin-2-yl)oxy)ethyl)piperazin-1-yl)ethoxy)isoxazol-5-yl)-3-methylbutanoyl)-N-((R)-2-(dimethylamino)-1-(4-(4-methylthiazol-5-yl)phenyl)ethyl)-4-hydroxypyrrolidine-2-carboxamide] | < 2.5 | > 75 | –
Cc1ncsc1-c1ccc([C@H](C)NC(=O)[C@@H]2C[C@@H](O)CN2C(=O)[C@@H](NC(=O)COCCN2CCC(O[C@H]3C[C@H](Oc4cc(N5C6CCC5CN(c5cc(-c7ccccc7O)nnc5N)C6)ccn4)C3)CC2)C(C)(C)C)cc1 [compound 183, (2S,4R)-1-((2S)-2-(2-(2-(4-((1r,3S)-3-((4-(3-(3-amino-6-(2-hydroxyphenyl)pyridazin-4-yl)-3,8-diazabicyclo[3.2.1]octan-8-yl)pyridin-2-yl)oxy)cyclobutoxy)piperidin-1-yl)ethoxy)acetamido)-3,3-dimethylbutanoyl)-4-hydroxy-N-((S)-1-(4-(4-methylthiazol-5-yl)phenyl)ethyl)pyrrolidine-2-carboxamide] | < 2.5 | > 75 | –
Cc1nccn1-c1ccc([C@H](C)NC(=O)[C@@H]2C[C@@H](O)CN2C(=O)[C@H](c2cc(OCC#Cc3ccc(O[C@H]4C[C@H](Oc5cc(N6C7CCC6CN(c6cc(-c8ccccc8O)nnc6N)C7)ccn5)C4)cn3)no2)C(C)C)cc1 [compound 233, (2S,4R)-1-((2S)-2-(3-((3-(5-((1r,3S)-3-((4-(3-(3-amino-6-(2-hydroxyphenyl)pyridazin-4-yl)-3,8-diazabicyclo[3.2.1]octan-8-yl)pyridin-2-yl)oxy)cyclobutoxy)pyridin-2-yl)prop-2-yn-1-yl)oxy)isoxazol-5-yl)-3-methylbutanoyl)-4-hydroxy-N-((S)-1-(4-(2-methyl-1H-imidazol-1-yl)phenyl)ethyl)pyrrolidine-2-carboxamide] | 10 to 30 | > 75 | –
Cc1cnnn1-c1ccc([C@H](C)NC(=O)[C@@H]2C[C@@H](O)CN2C(=O)[C@@H](c2cc(OCCN3CCN(CCOc4cc(N5C6CCC5CN(c5cc(-c7ccccc7O)nnc5N)C6)ccn4)CC3)no2)C(C)C)cc1 [compound 275, (2S,4R)-1-((2R)-2-(3-(2-(4-(2-((4-(3-(3-amino-6-(2-hydroxyphenyl)pyridazin-4-yl)-3,8-diazabicyclo[3.2.1]octan-8-yl)pyridin-2-yl)oxy)ethyl)piperazin-1-yl)ethoxy)isoxazol-5-yl)-3-methylbutanoyl)-4-hydroxy-N-((S)-1-(4-(5-methyl-1H-1,2,3-triazol-1-yl)phenyl)ethyl)pyrrolidine-2-carboxamide] | 10 to 30 | > 75 | –
Cc1ncsc1-c1cnc([C@H](C)NC(=O)[C@@H]2C[C@@H](O)CN2C(=O)[C@@H](c2cc(N3CCC(CN4CCC(O[C@H]5C[C@H](Oc6cc(N7C8CCC7CN(c7cc(-c9ccccc9O)nnc7N)C8)ccn6)C5)CC4)CC3)no2)C(C)C)cn1 [compound 590, (2S,4R)-1-((2R)-2-(3-(4-((4-((1r,3r)-3-((4-(3-(3-amino-6-(2-hydroxyphenyl)pyridazin-4-yl)-3,8-diazabicyclo[3.2.1]octan-8-yl)pyridin-2-yl)oxy)cyclobutoxy)piperidin-1-yl)methyl)piperidin-1-yl)isoxazol-5-yl)-3-methylbutanoyl)-4-hydroxy-N-((S)-1-(5-(4-methylthiazol-5-yl)pyrazin-2-yl)ethyl)pyrrolidine-2-carboxamide] | – | – | Dmax [5]: > 75%; DC50 [3]: < 2.5 nM
Cc1ncoc1-c1ccc([C@H](C)NC(=O)[C@@H]2C[C@@H](O)CN2C(=O)[C@@H](c2cc(OCCN3CCN(CCOc4cc(N5C6CCC5CN(c5cc(-c7ccccc7O)nnc5N)C6)ccn4)CC3)no2)C(C)C)cc1 [compound 300, (2S,4R)-1-((2R)-2-(3-(2-(4-(2-((4-(3-(3-amino-6-(2-hydroxyphenyl)pyridazin-4-yl)-3,8-diazabicyclo[3.2.1]octan-8-yl)pyridin-2-yl)oxy)ethyl)piperazin-1-yl)ethoxy)isoxazol-5-yl)-3-methylbutanoyl)-4-hydroxy-N-((S)-1-(4-(4-methyloxazol-5-yl)phenyl)ethyl)pyrrolidine-2-carboxamide] | < 2.5 | > 75 | –
